Measured values reported in ChEMBL document CHEMBL2321807, “Synthesis and in vitro biological evaluation of lipophilic cation conjugated photosensitizers for targeting mitochondria” (Bioorg Med Chem, 2013).
Calls of active or inactive are those of the source. The rule behind the calls is not given here.

How the values were obtained:
[1] = n-octanol-water distribution coefficient, log D of the compound at pH 7.4 by shake flask method; type: physicochemical
[2] = system: Colon 26; assay: Phototoxicity against mouse Colon 26 cells up to 5 uM incubated for 24 hrs prior to irradiation measured after 30 mins by MTT assay; type: functional
[3] = system: Colon 26; assay: Dark toxicity against mouse Colon 26 cells up to 5 uM after 24 hrs by MTT assay; type: functional, cell-based
[4] = system: Colon 26; assay: Drug uptake in mouse Colon 26 cells assessed per cell at 5 uM after 24 hrs by fluorimetric analysis; type: ADME, cell-based; conditions: colon 26, 24 h
[5] = Drug uptake in human MCF7 cells mitochondria at 5 uM after 14 hrs by Rh-123-based dual fluorescence staining method; type: ADME, cell-based; conditions: mcf7, 14 h
[6] = system: Colon 26; assay: Drug uptake in mouse Colon 26 cells at 5 uM after 24 hrs by fluorimetric analysis relative to CMP-OH; type: ADME, cell-based; conditions: colon 26, 24 h
[7] = system: Colon 26; assay: Drug uptake in mouse Colon 26 cells at 10 uM after 24 hrs by fluorimetric analysis relative to CMP-OH; type: ADME, cell-based; conditions: colon 26, 24 h
[8] = system: Colon 26; assay: Phototoxicity against mouse Colon 26 cells incubated for 24 hrs prior to irradiation measured after 30 mins by MTT assay; type: functional, cell-based; conditions: Colon 26, light or radiation study
[9] = system: Colon 26; assay: Drug uptake in mouse Colon 26 cells at 5 to 10 uM after 24 hrs by fluorimetric analysis; type: ADME, cell-based; conditions: colon 26, 24 h
[10] = Drug uptake in human MCF7 cells cytoplasm at 5 uM after 14 hrs by Rh-123-based dual fluorescence staining method; type: ADME, cell-based; conditions: mcf7, 14 h

logD [1] | Drug uptake [4] [fmol] | Drug uptake [5] | fold change (FC) [6] | fold change (FC) [7] | Drug uptake [9] | Drug uptake [10] | Structure (SMILES) | Activity [2] | Activity [3] | IC50 [8] [nM]
2.3 | 0.19 |  |  |  |  |  | Oc1ccc(-c2c3nc(c(-c4ccccc4)c4ccc(s4)c(-c4ccccc4)c4nc(c(-c5ccccc5)c5ccc2s5)C=C4)C=C3)cc1 | inactive | inactive | 
 |  |  |  |  |  |  | CCN(CC)c1ccc2c(-c3ccccc3C(C)=O)c3ccc(=[N+](CC)CC)cc-3oc2c1 | inactive | inactive | 
1.79 |  | Active | 8.3 | 7 | Active |  | C1=Cc2nc1c(-c1ccccc1)c1ccc(s1)c(-c1ccccc1)c1nc(c(-c3ccc(OCCC[P+](c4ccccc4)(c4ccccc4)c4ccccc4)cc3)c3ccc(s3)c2-c2ccc(OCCC[P+](c3ccccc3)(c3ccccc3)c3ccccc3)cc2)C=C1.[Br-].[Br-] | >70% | inactive | 1670
2.04 |  | Not Active | 18.9 | 14 | Active |  | C1=Cc2nc1c(-c1ccccc1)c1ccc(s1)c(-c1ccccc1)c1nc(c(-c3ccc(OCCC[P+](c4ccccc4)(c4ccccc4)c4ccccc4)cc3)c3ccc(s3)c2-c2ccccc2)C=C1.[Br-] | >70% | inactive | 900
2.01 |  | Active | 10.6 | 7 | Active | Active | CCN(CC)c1ccc2c(-c3ccccc3C(=O)OCCCOc3ccc(-c4c5nc(c(-c6ccccc6)c6ccc(s6)c(-c6ccccc6)c6nc(c(-c7ccccc7)c7ccc4s7)C=C6)C=C5)cc3)c3ccc(=[N+](CC)CC)cc-3oc2c1.[Cl-] | >70% | inactive | 2360
 |  |  |  |  |  |  | C1=Cc2nc1c(-c1ccccc1)c1nc(c(-c3ccccc3)c3ccc([nH]3)c(-c3ccccc3)c3ccc([nH]3)c2-c2ccccc2)C=C1 |  | inactive | 
2.07 |  |  |  |  |  |  | CCN(CC)c1ccc2c(-c3ccccc3C(=O)O)c3ccc(=[N+](CC)CC)cc-3oc2c1 [RHODAMINE B] |  |  | 
